For series [1], the target named is T1, aromatic amino acid decarboxylase (AAAD) (Homo sapiens, UniProt P20711).
T1 sequence (P20711 1-480): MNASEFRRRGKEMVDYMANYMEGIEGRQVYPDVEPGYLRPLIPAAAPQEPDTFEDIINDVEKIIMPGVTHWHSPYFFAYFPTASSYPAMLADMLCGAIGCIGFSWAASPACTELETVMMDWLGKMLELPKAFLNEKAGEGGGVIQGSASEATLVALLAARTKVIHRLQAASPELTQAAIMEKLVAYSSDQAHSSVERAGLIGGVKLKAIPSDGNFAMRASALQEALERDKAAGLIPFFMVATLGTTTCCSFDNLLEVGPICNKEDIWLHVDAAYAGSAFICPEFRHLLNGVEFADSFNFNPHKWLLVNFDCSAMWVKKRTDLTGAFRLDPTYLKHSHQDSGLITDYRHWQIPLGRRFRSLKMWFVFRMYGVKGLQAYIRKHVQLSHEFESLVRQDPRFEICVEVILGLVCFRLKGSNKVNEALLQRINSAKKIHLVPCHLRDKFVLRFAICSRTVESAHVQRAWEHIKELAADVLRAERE
As to conditions: given with L-DOPA; Nutt, Woodward et al. 1985; cited from earlier work.

For series [2] the following is noted: Russ, et al. 1999; cited from earlier work.
For series [3] the following is noted: clinical use; Olanow and Watkins 2007; cited from earlier work.
For series [4] the following is noted: Nutt and Fellman 1984; cited from earlier work.
For series [5], the target named is T2, catechol-O-methyltransferase (COMT) (Homo sapiens, UniProt P21964).
T2 construct: M51A variant) was expressed in HEK 293F cells
T2 sequence (P21964 52-271 limits assumed): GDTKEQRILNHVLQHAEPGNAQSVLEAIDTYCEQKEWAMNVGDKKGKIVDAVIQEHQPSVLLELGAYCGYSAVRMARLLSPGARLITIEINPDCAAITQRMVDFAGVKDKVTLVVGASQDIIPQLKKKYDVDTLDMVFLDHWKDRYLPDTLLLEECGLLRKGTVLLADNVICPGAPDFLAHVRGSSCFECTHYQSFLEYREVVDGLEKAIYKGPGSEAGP
As to the kind of experiment: COMT inhibition assay (HTRF, production of S-adenosyl homocysteine). The format is biochemical. As to conditions: recombinant human COMT, HTRF SAH production; MB-COMT or S-COMT not stated for Table 1. In outline:
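SAH formed from SAM (20 μM) measured by HTRF with SAH standard curve; pIC50 from 4-parameter fit. MB-COMT (M51A, HEK293F membranes, 62 ng/well): 1.5 μM dopamine, 40 min, 37° C.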
A general note: Time-resolved FRET reads energy transfer from a long-lived donor to a nearby acceptor.

Turning to `C[C@@](Cc1ccc(O)c(O)c1)(NN)C(=O)O` [Carbidopa], the “reduction of the efficacious L-DOPA dose” value in series [1] is reported as 60-80%.
On to `Cc1ccc(C(=O)c2cc(O)c(O)c([N+](=O)[O-])c2)cc1` [tolcapone], for which, in series [2], the brain penetration result is recorded as “low but measurable”. Also, the liver injury result in series [3] was “serious liver injury, including three deaths”.
`CCN(CC)C(=O)/C(C#N)=C/c1cc(O)c(O)c([N+](=O)[O-])c1` [entacapone]: the brain penetration result in series [2] is recorded as “negligible”.
Regarding `N[C@@H](Cc1ccc(O)c(O)c1)C(=O)O` [L-DOPA], in series [4], the “percentage of exogenously administered L-DOPA that reaches the brain” value is given as approximately 1%.
Regarding `Cc1ccc(N(C)S(=O)(=O)c2ccc(O)c3ncccc23)cc1` [Example 46, 8-hydroxy-N-(4-methylphenyl)-N-methylquinoline-5-sulfonamide], the “Activity range (pIC50, COMT inhibition)” value in series [5] is given as “++ (a pIC50 of from about great than 6 to 7)”.

The values above are taken from patent publication US10035799B2, “COMT inhibiting methods and compositions” (Lieber Institute for Brain Development, priority 2015, dated 2018).
